We go through six compounds from patent publication EP0908457B1, “3-(1,2-benzisothiazol- and isoxazol-5-Y1)-2,4(1H,3H)-pyrimidinedione or thione and 3-(1,2-benzisothiazol- and isoxazol-5-y1)-4(3H)-pyrimidinone or thione herbicidal agents” (BASF AKTIENGESELLSCHAFT, priority 1997, dated 1999).

Data set [1] deals with Oryza sativa, (L.) Tebonnet. As to the kind of experiment: Rice tolerance to post-transplant applications under flooded paddy conditions (Example 187), ORYSAT (Rice, Tebonnet). The settings on record: for herbicidal effect rating, ORYSAT (rice tolerance): rated three to four weeks after treatment; for ORYSAT: herbicidal effect rating 0-9, three to four weeks after treatment.

A further data set has as its system Cyperus iria. In words: Preemergence weed control under flooded paddy conditions, CYPIR (Rice Flatsedge). On herbicidal effect rating, CYPIR: meaning of each grade not given here. The data set is classed as in vivo. The note with it: preemergence weeds, flooded paddy; for herbicidal effect rating, CYPIR: rated three to four weeks after treatment; for CYPIR: herbicidal effect rating 0-9, three to four weeks after treatment.
In data set [2] the test system is Echinochloa oryzoides (Ard.) Fritsch. As to the kind of experiment: Preemergence weed control under flooded paddy conditions, ECHORC (Watergrass (Calif.)). On herbicidal effect rating, ECHORC: meaning of each grade not given here. The note with it: preemergence weeds, flooded paddy; for herbicidal effect rating, ECHORC: rated three to four weeks after treatment; for ECHORC: herbicidal effect rating 0-9, three to four weeks after treatment. Type of data set: in vivo.

A further data set concerns Sagittaria pygmaea, L. In words: Preemergence weed control under flooded paddy conditions, SAGPY (Arrowhead (Pygmaea)). Further: meaning of each grade not given here. The data set is classed as in vivo. The note with it: preemergence weeds, flooded paddy, rated three to four weeks after treatment.
The test system of data set [3] is Monochoria vaginalis, Presl. As to the kind of experiment: Preemergence weed control under flooded paddy conditions, MOOVA (Monochoria). On herbicidal effect rating, MOOVA: meaning of each grade not given here. Type of data set: in vivo. The settings on record: preemergence weeds, flooded paddy; for herbicidal effect rating, MOOVA: rated three to four weeks after treatment; for MOOVA: herbicidal effect rating 0-9, three to four weeks after treatment.

Data set [4] relates to Cyperus serotinus, Rottb. In words: Preemergence weed control under flooded paddy conditions, CYPSE (Flatsedge). On herbicidal effect rating, CYPSE: meaning of each grade not given here. Type of data set: in vivo. The settings on record: preemergence weeds; for herbicidal effect rating, CYPSE: rated three to four weeks after treatment; for CYPSE: herbicidal effect rating 0-9, three to four weeks after treatment.

For `Cc1ccc(OC2CC(C)OC2=O)c(-c2nsc3ccc(-n4c(=O)cc(C(F)(F)F)n(C)c4=O)cc23)c1` (racemic) [Example 189, 1-Methyl-3-{3-{6-[(tetrahydro-5-methyl-2-oxo-3-furyl)oxy]-m-tolyl}-1,2-benzisothiazol-5-yl}-6-(trifluoromethyl)-2,4(1H,3H)-pyrimidinedione, DL-], the “herbicidal effect rating, ORYSAT (rice tolerance)” value in data set [1] (0.0313 kg/ha), in data set [1] (0.0625 kg/ha), in data set [1] (0.1250 kg/ha) and in data set [1] (0.2500 kg/ha) was 0.0 each time. The “herbicidal effect rating, CYPIR” value in the data set with Cyperus iria (0.0313 kg/ha), in the data set on Cyperus iria (0.0625 kg/ha), with Cyperus iria (0.1250 kg/ha) and with Cyperus iria (0.2500 kg/ha) was 0.0 each time. Moreover, the “herbicidal effect rating, ECHORC” value in data set [2] (0.0313 kg/ha), in data set [2] (0.0625 kg/ha), in data set [2] (0.1250 kg/ha) and in data set [2] (0.2500 kg/ha) was 0.0 each time. Moreover, the “herbicidal effect rating, SAGPY” value in the data set with Sagittaria pygmaea, L. (0.0313 kg/ha) came to 0.0; in the data set on Sagittaria pygmaea, L. (0.0625 kg/ha), 0.0; in the data set with Sagittaria pygmaea, L. (0.1250 kg/ha), 0.0; in the data set with Sagittaria pygmaea, L. (0.2500 kg/ha), 0.0. Further, the “herbicidal effect rating, MOOVA” value in data set [3] (0.0313 kg/ha) is 0.0; in data set [3] (0.0625 kg/ha) it was 0.0; in data set [3] (0.1250 kg/ha), 2.0; in data set [3] (0.2500 kg/ha) it was 8.0. Moreover, the “herbicidal effect rating, CYPSE” value in data set [4] (0.0313 kg/ha), in data set [4] (0.0625 kg/ha), in data set [4] (0.1250 kg/ha) and in data set [4] (0.2500 kg/ha) was 0.0 throughout.

For `COCC(C)OC(=O)COc1ccc(C)cc1-c1nsc2ccc(-n3c(=O)cc(C(F)(F)F)n(C)c3=O)cc12` (racemic) [Example 192, 1-Methyl-2-methoxyethyl {{2-{5-[3,6-dihydro-3-methyl-2,6-dioxo-4-(trifluoromethyl)-1(2H)-pyrimidinyl]-1,2-benzisothiazol-3-yl}-p-tolyl}oxy}acetate, DL-], the “herbicidal effect rating, ORYSAT (rice tolerance)” value is listed as 1.0 in data set [1] (0.0313 kg/ha), 2.0 in data set [1] (0.0625 kg/ha), 3.0 in data set [1] (0.1250 kg/ha) and 4.0 in data set [1] (0.2500 kg/ha). In addition, the “herbicidal effect rating, CYPIR” value in the data set with Cyperus iria (0.0313 kg/ha) was found to be 0.0; in the data set with Cyperus iria (0.0625 kg/ha) it was 0.0; in the data set on Cyperus iria (0.1250 kg/ha), 2.0; in the data set with Cyperus iria (0.2500 kg/ha) it was 7.0. In addition, the “herbicidal effect rating, ECHORC” value stood at 1.0 in data set [2] (0.0313 kg/ha), 4.0 in data set [2] (0.0625 kg/ha), 9.0 in data set [2] (0.1250 kg/ha) and 9.0 in data set [2] (0.2500 kg/ha). For the same compound, the “herbicidal effect rating, SAGPY” value in the data set with Sagittaria pygmaea, L. (0.0313 kg/ha) worked out at 0.0; in the data set on Sagittaria pygmaea, L. (0.0625 kg/ha), 0.0; in the data set with Sagittaria pygmaea, L. (0.1250 kg/ha) it was 2.0; with Sagittaria pygmaea, L. (0.2500 kg/ha) it was 9.0. In addition, the “herbicidal effect rating, MOOVA” value in data set [3] (0.0313 kg/ha), in data set [3] (0.0625 kg/ha), in data set [3] (0.1250 kg/ha) and in data set [3] (0.2500 kg/ha) was 9.0 throughout. Further, the “herbicidal effect rating, CYPSE” value in data set [4] (0.0313 kg/ha), in data set [4] (0.0625 kg/ha) and in data set [4] (0.1250 kg/ha) was 0.0 each time.

On to `COCCOC(=O)c1nsc2ccc(-n3c(=O)cc(C(F)(F)F)n(C)c3=O)cc12` [Example 411, 1,2-Benzisothiazole-3-carboxylic acid, 5-[3,6-dihydro-3-methyl-2,6-dioxo-4-(trifluoromethyl)-1(2H)-pyrimidinyl]-, 2-methoxyethyl ester], for which the ORYSAT was 0.0 in data set [1] (0.0320 kg/ha), 0.0 in data set [1] (0.0620 kg/ha), 2.0 in data set [1] (0.1250 kg/ha) and 5.0 in data set [1] (0.2500 kg/ha). For the same compound, the CYPIR with Cyperus iria (0.0320 kg/ha) is listed as 0.0; in the data set with Cyperus iria (0.0620 kg/ha), 2.0; in the data set on Cyperus iria (0.1250 kg/ha) it was 3.0; with Cyperus iria (0.2500 kg/ha), 9.0. Moreover, the ECHORC in data set [2] (0.0320 kg/ha) is on record as 0.0; in data set [2] (0.0620 kg/ha), 0.0; in data set [2] (0.1250 kg/ha), 0.0; in data set [2] (0.2500 kg/ha), 6.0. Moreover, the MOOVA in data set [3] (0.0320 kg/ha), in data set [3] (0.0620 kg/ha), in data set [3] (0.1250 kg/ha) and in data set [3] (0.2500 kg/ha) was 9.0 throughout. In addition, the CYPSE in data set [4] (0.0320 kg/ha) stood at 0.0; in data set [4] (0.0620 kg/ha), 2.0; in data set [4] (0.1250 kg/ha) it was 7.0; in data set [4] (0.2500 kg/ha) it was 9.0.

In the case of `CN(/N=C/c1nsc2ccc(-n3c(=O)cc(C(F)(F)F)n(C)c3=O)cc12)c1ccccc1` [Example 412, 1,2-Benzisothiazole-3-carboxaldehyde, 5-[3,6-dihydro-3-methyl-2,6-dioxo-4-(trifluoromethyl)-1(2H)-pyrimidinyl]-, 3-(methylphenylhydrazone), (E)-], the ORYSAT in data set [1] (0.0320 kg/ha) was found to be 0.0; in data set [1] (0.0620 kg/ha) it was 0.0; in data set [1] (0.1250 kg/ha), 2.0; in data set [1] (0.2500 kg/ha) it was 4.0. The CYPIR came out at 0.0 in the data set with Cyperus iria (0.0320 kg/ha), 0.0 with Cyperus iria (0.0620 kg/ha), 4.0 with Cyperus iria (0.1250 kg/ha) and 8.0 in the data set with Cyperus iria (0.2500 kg/ha). Besides, the ECHORC in data set [2] (0.0320 kg/ha), in data set [2] (0.0620 kg/ha) and in data set [2] (0.1250 kg/ha) was 0.0 throughout. The MOOVA in data set [3] (0.0320 kg/ha) is listed as 7.0; in data set [3] (0.0620 kg/ha), 9.0; in data set [3] (0.1250 kg/ha), 9.0; in data set [3] (0.2500 kg/ha) it was 9.0. The CYPSE in data set [4] (0.0320 kg/ha) came to 0.0; in data set [4] (0.0620 kg/ha), 0.0; in data set [4] (0.1250 kg/ha) it was 4.0; in data set [4] (0.2500 kg/ha), 6.0.

Turning to `CC(OS(=O)(=O)c1ccccc1)c1nsc2ccc(-n3c(=O)cc(C(F)(F)F)n(C)c3=O)cc12` (stereo not shown) [Example 415, 2,4(1H,3H)-Pyrimidinedione, 3-[3-(1-hydroxyethyl)-1,2-benzisothiazol-5-yl]-1-methyl-6-(trifluoromethyl)-, benzenesulfonate (ester)], the ORYSAT turned out to be 3.0 in data set [1] (0.0320 kg/ha), 4.0 in data set [1] (0.0620 kg/ha), 5.0 in data set [1] (0.1250 kg/ha) and 9.0 in data set [1] (0.2500 kg/ha). The CYPIR with Cyperus iria (0.0320 kg/ha) was determined as 0.0; with Cyperus iria (0.0620 kg/ha), 0.0; in the data set with Cyperus iria (0.1250 kg/ha), 2.0; in the data set on Cyperus iria (0.2500 kg/ha), 6.0. Also, the ECHORC is reported as 0.0 in data set [2] (0.0320 kg/ha), 0.0 in data set [2] (0.0620 kg/ha), 3.0 in data set [2] (0.1250 kg/ha) and 9.0 in data set [2] (0.2500 kg/ha). Moreover, the MOOVA in data set [3] (0.0320 kg/ha) worked out at 5.0; in data set [3] (0.0620 kg/ha), 5.0; in data set [3] (0.1250 kg/ha) it was 5.0; in data set [3] (0.2500 kg/ha) it was 8.0. Further, the CYPSE in data set [4] (0.0320 kg/ha) and in data set [4] (0.0620 kg/ha) was 0.0 throughout.

As to `CC(Cl)c1nsc2ccc(-n3c(=O)cc(C(F)(F)F)n(C)c3=O)cc12` (stereo not shown) [Example 416, 2,4(1H,3H)-Pyrimidinedione, 3-[3-(1-chloroethyl)-1,2-benzisothiazol-5-yl]-1-methyl-6-(trifluoromethyl)-], the ORYSAT in data set [1] (0.0320 kg/ha) is listed as 6.0; in data set [1] (0.0620 kg/ha) it was 7.0; in data set [1] (0.1250 kg/ha), 9.0; in data set [1] (0.2500 kg/ha), 9.0. Moreover, the CYPIR stood at 4.0 with Cyperus iria (0.0320 kg/ha), 4.0 in the data set with Cyperus iria (0.0620 kg/ha), 4.0 in the data set with Cyperus iria (0.1250 kg/ha) and 8.0 in the data set with Cyperus iria (0.2500 kg/ha). Moreover, the ECHORC in data set [2] (0.0320 kg/ha) is given as 0.0; in data set [2] (0.0620 kg/ha), 3.0; in data set [2] (0.1250 kg/ha) it was 3.0; in data set [2] (0.2500 kg/ha) it was 9.0. Moreover, the MOOVA in data set [3] (0.0320 kg/ha) turned out to be 7.0; in data set [3] (0.0620 kg/ha), 7.0; in data set [3] (0.1250 kg/ha), 7.0; in data set [3] (0.2500 kg/ha), 9.0. Besides, the CYPSE in data set [4] (0.0320 kg/ha) is recorded as 0.0; in data set [4] (0.0620 kg/ha), 0.0; in data set [4] (0.1250 kg/ha), 0.0; in data set [4] (0.2500 kg/ha) it was 3.0.
